Results: BindingDB's records for doi:10.1021/jm00121a046 (University of Kentucky, 1989)

Legend:
[1] = biological target: Prostaglandin F2-alpha receptor (Sheep); assay: Binding potency towards Prostaglandin F2 alpha receptor (competitive binding) with natural [3H]-PGF 2 alpha in ovine luteal cells (OLC)
[2] = biological target: Prostaglandin F2-alpha receptor (Sheep); assay: as above; remark: listed apart in the source

IC50 [1] [µM] | IC50 [2] [µM] | Structure (SMILES)
0.35 | – | [N-]=[N+]=Nc1ccc(CC[C@H](O)/C=C/[C@@H]2[C@@H](C/C=C\CCCC(=O)O)[C@@H](O)C[C@H]2O)cc1I
– | 11 | [N-]=[N+]=Nc1cc(O)cc(OC[C@H](O)/C=C/[C@@H]2[C@@H](C/C=C\CCCC(=O)O)[C@@H](O)C[C@H]2O)c1
– | 6.1 | [N-]=[N+]=Nc1ccc(CC[C@H](O)/C=C/[C@@H]2[C@@H](C/C=C\CCCC(=O)O)[C@@H](O)C[C@H]2O)c(O)c1
